pIC50: −log10 of the molar value.
Tests used:
[1] = molecular target: PIK3CA (human) (UniProt P42336)
[2] = molecular target: PIK3CB (Human) (UniProt P42338)
Sequence of PIK3CB (Human) (P42338 whole entry, looked up): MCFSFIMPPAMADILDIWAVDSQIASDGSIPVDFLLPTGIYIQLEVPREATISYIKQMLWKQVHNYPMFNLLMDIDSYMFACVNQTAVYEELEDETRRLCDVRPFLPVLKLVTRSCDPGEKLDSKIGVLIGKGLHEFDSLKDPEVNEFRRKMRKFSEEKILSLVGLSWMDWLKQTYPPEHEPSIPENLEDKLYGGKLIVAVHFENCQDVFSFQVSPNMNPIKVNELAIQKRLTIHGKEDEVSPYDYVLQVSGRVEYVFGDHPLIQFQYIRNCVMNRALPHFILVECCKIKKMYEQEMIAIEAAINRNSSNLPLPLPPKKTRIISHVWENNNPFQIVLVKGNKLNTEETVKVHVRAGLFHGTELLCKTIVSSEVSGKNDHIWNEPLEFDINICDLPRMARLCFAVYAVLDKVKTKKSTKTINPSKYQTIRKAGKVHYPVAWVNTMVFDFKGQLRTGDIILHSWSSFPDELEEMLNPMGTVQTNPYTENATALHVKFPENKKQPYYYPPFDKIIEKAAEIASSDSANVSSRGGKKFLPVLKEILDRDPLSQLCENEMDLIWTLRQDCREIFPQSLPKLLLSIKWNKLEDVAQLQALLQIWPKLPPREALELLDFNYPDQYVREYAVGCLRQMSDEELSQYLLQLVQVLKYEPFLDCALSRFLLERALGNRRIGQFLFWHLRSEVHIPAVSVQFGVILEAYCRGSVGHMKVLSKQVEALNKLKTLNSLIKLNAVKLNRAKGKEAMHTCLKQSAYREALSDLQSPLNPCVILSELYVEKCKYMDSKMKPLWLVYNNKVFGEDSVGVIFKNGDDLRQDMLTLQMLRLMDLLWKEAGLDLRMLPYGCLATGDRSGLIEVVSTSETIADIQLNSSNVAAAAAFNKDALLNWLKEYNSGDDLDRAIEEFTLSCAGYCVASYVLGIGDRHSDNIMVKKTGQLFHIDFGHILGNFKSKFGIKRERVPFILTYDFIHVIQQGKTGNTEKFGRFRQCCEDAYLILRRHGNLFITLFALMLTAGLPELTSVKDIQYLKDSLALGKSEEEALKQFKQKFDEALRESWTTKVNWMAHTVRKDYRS

Sequence of PIK3CA (human) (P42336 whole entry, looked up): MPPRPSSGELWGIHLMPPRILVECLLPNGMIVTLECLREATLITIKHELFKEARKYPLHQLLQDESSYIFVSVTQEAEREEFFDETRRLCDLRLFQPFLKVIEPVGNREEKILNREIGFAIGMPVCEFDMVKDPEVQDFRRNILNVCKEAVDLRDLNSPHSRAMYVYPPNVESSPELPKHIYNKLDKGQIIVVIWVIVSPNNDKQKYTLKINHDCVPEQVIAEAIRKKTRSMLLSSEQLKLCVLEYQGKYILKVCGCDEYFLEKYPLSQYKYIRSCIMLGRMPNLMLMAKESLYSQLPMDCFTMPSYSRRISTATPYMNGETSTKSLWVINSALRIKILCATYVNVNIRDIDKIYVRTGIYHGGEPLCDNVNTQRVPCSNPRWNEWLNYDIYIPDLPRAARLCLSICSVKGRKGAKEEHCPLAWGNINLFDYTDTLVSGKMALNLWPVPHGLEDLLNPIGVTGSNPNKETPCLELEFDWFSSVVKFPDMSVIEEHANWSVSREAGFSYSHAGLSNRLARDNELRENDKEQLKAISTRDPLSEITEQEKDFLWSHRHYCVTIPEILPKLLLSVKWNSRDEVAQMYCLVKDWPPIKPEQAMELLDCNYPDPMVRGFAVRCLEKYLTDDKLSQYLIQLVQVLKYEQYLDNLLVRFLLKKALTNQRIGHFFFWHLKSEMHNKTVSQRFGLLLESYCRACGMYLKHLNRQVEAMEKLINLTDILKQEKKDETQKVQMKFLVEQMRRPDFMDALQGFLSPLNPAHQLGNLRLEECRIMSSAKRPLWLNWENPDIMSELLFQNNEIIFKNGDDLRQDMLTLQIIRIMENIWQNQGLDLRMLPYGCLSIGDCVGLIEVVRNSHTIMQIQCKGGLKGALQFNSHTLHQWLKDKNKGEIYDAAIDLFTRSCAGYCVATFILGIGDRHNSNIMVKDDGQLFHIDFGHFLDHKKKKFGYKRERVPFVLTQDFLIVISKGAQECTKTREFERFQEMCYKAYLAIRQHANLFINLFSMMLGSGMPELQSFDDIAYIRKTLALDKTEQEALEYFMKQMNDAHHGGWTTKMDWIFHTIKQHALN

## Cc1ccc(S(=O)(=O)NCC(C)(C)O)cc1-c1cnc(N)c(-c2cnc(C3CC3)o2)c1
[1]
  pIC50: 6.55
[2]
  pIC50: 5.89

From the Kinase Knowledgebase extract (Sharma et al. 2016)
